Data set [1] concerns MLLr leukemia cell line MV4-11. The data set can be described thus: Cell proliferation assay MV4;11 (CellTiter-Glo, 72 hours). The data set is classed as cell-based. The conditions noted are these: Homo sapiens; MV4-11 cells, 72 hours, CellTiter-Glo; read-out: MV4; 11 IC50. In short, it runs like this:
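Cells in IMDM/10% FBS, seeded from a 15,000 cells/ml suspension, were exposed for 72 h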

A further data set concerns the target T1, Menin-MLL (Homo sapiens, UniProt O00255).
T1 sequence (O00255 1-610): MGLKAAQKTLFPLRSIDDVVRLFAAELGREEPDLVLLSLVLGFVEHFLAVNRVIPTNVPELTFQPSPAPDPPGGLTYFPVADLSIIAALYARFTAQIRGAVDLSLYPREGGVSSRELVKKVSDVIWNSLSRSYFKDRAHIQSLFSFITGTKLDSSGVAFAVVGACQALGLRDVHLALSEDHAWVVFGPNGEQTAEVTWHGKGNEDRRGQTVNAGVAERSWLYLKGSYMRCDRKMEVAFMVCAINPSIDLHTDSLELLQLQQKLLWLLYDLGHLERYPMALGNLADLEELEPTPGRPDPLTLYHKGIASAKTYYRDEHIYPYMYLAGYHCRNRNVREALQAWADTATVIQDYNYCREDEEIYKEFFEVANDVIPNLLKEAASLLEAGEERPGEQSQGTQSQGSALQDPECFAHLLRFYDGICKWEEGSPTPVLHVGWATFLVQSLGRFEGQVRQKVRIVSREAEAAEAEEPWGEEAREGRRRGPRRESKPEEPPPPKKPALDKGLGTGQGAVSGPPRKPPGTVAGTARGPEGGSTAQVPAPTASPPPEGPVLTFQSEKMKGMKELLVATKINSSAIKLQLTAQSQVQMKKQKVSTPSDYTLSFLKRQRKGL
Put plainly: Determination of binding constants to Menin-MLL (HTRF, EC50 and Ki). Particulars: 0.25 nM H-FL-Menin, 3.2 nM FITC-MLL-4-43, 24 hr incubation. In general terms: TR-FRET usually uses a lanthanide donor and a delayed reading to cut background.

For data set [2], the target named is T2, human Menin and N-terminal portion of human MLL (amino acids 4-43) (Homo sapiens, UniProt O00255).
T2 construct: H-FL-Menin diluted to 4 nM in assay buffer
T2 sequence (O00255 1-610): T1 sequence (O00255 1-610)
The data set can be described thus: Menin-MLL competition assay (HTRF). The data set is classed as binding. The conditions noted are these: 1 hr incubation. In short, it runs like this: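 HTRF competition: 1 nM His-tagged full-length Menin with 2 nM Tb-anti-His6 and 1 nM FITC-MLL(4-43), 1 h at room temperature in Tris pH 7.4 buffer with DTT, BSA, Triton X-100; 3.16-fold compound series, 2% DMSO. Ratio 520/485 normalized to DMSO and 1 μM reference-compound controls for IC50.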

The target in the next data set is hERG (Homo sapiens, UniProt Q12809). The data set can be described thus: Patch clamp assay (hERG tail currents, whole-cell).
hERG, sequence (Q12809 whole entry): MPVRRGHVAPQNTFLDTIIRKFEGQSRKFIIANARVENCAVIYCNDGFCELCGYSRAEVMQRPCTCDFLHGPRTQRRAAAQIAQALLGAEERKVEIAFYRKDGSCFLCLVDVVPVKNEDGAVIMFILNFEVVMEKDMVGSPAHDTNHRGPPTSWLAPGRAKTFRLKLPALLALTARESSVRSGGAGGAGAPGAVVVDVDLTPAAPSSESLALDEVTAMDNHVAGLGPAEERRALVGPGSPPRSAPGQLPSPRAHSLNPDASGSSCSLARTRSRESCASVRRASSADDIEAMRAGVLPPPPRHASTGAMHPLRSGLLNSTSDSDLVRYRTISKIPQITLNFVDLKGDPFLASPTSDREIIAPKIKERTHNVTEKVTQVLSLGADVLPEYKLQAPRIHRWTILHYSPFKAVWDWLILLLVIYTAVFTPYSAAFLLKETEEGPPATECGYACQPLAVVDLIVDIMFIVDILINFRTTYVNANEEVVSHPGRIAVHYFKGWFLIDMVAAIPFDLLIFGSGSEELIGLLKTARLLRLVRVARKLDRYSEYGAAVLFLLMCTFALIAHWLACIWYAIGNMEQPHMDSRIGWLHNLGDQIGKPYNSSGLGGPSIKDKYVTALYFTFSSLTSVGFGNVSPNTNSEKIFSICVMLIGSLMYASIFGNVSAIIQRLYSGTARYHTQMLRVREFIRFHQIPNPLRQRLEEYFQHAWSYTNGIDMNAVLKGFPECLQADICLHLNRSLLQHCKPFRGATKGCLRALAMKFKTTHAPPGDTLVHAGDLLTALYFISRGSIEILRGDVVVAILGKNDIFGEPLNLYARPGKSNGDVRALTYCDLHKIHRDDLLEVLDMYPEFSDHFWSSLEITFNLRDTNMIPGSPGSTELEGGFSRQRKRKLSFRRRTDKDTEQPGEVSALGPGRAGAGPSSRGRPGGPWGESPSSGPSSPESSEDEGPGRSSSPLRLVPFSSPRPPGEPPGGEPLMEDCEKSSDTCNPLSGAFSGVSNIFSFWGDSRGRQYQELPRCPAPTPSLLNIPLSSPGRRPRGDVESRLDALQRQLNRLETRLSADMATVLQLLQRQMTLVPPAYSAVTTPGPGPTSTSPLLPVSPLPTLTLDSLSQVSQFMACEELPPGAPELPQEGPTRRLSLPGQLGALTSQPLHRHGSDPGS

Bounds are passed on as bounds.

As usually defined, the Ki is the equilibrium dissociation constant of an inhibitor or competing ligand from its target. Lower therefore signals a stronger hold on the target. For the compound `CCS(=N)(=O)N[C@@H]1CC[C@@H](CN2CCC3(CC2)CN(c2ncncc2Oc2ccc(F)cc2C(=O)N(C(C)C)C(C)C)C3)OC1` (mixture of isomers) [Example 225, 2-((4-(7-(((2S,5R)-5-(Ethylsulfonoamidimidamido)tetrahydro-2H-pyran-2-yl)methyl)-2,7-diazaspiro[3.5]nonan-2-yl)pyrimidin-5-yl)oxy)-5-fluoro-N,N-diisopropylbenzamide], the IC50 in data set [1] lay in the range of 100 to 1000 nM. Also, the Ki on Menin-MLL was below 1 nM.
As for `CCN(C(=O)c1cc(F)ccc1Oc1cncnc1N1CC2(CCN(C[C@@H]3CC[C@@H](NS(=O)(=O)C4CCOC4)CO3)CC2)C1)C(C)C` (stereo partly drawn) [Example 10, N-Ethyl-5-fluoro-N-isopropyl-2-((4-(7-(((2S,5R)-5-((tetrahydrofuran)-3-sulfonamido)tetrahydro-2H-pyran-2-yl)methyl)-2,7-diazaspiro[3.5]nonan-2-yl)pyrimidin-5-yl)oxy)benzamide], the IC50 in data set [1] and in data set [2] was below 100 nM in each case.
For the compound `CC(C)N(C(=O)c1cc(F)ccc1Oc1cncnc1N1CC2(CCN(C[C@@H]3CC[C@@H](NS(C)(=O)=O)CO3)CC2)C1)C1CC1` [Example 18, N-Cyclopropyl-5-fluoro-N-isopropyl-2-((4-(7-(((2S,5R)-5-(methylsulfonamido)tetrahydro-2H-pyran-2-yl)methyl)-2,7-diazaspiro[3.5]nonan-2-yl)pyrimidin-5-yl)oxy)benzamide], the IC50 in data set [1] and in data set [2] was below 100 nM each time.
Regarding `CCS(=O)(=O)N[C@@H]1CC[C@@H](CN2CCC3(CC2)CN(c2ncncc2Oc2ccc(F)cc2C(=O)N(CC(F)F)C(C)C)C3)OC1` [Example 34, N-(2,2-Difluoroethyl)-2-((4-(7-(((2S,5R)-5-(ethylsulfonamido)tetrahydro-2H-pyran-2-yl)methyl)-2,7-diazaspiro[3.5]nonan-2-yl)pyrimidin-5-yl)oxy)-5-fluoro-N-isopropylbenzamide], the “hERG % Remaining” value was “+++ (≥66%)” at hERG (1 μM compound); “+++ (≥66%)” on hERG (3 μM compound); “+++ (≥66%)” at hERG (10 μM compound); “++ (233% and ≤66%)” at hERG (30 μM compound); “+ (<33%)” on hERG (100 μM compound). In data set [2], this compound came in with an IC50 below 100 nM.
With `CCS(=O)(=O)N[C@@H]1CC[C@@H](CN2CCC3(CC2)CN(c2ncncc2Oc2ccc(F)cc2C(=O)N(CCC#N)C(C)C)C3)OC1` [Example 43, N-(2-Cyanoethyl)-2-((4-(7-(((2S,5R)-5-(ethylsulfonamido)tetrahydro-2H-pyran-2-yl)methyl)-2,7-diazaspiro[3.5]nonan-2-yl)pyrimidin-5-yl)oxy)-5-fluoro-N-isopropylbenzamide], the “hERG % Remaining” value at hERG (10 μM compound) is “+++ (≥66%)”; at hERG (30 μM compound), “++ (233% and ≤66%)”. For the same compound, the IC50 in data set [2] is below 100 nM.
As to `CCS(=O)(=O)N[C@@H]1CC[C@@H](CN2CCC3(CC2)CN(c2ncncc2Oc2ccc(F)cc2C(=O)N(C(C)C)C2CC(F)(F)C2)C3)OC1` [Example 44, N-(3,3-Difluorocyclobutyl)-2-((4-(7-(((2S,5R)-5-(ethylsulfonamido)tetrahydro-2H-pyran-2-yl)methyl)-2,7-diazaspiro[3.5]nonan-2-yl)pyrimidin-5-yl)oxy)-5-fluoro-N-isopropylbenzamide], the “hERG % Remaining” value at hERG (10 μM compound) was “+++ (≥66%)”; on hERG (30 μM compound) it was “++ (233% and ≤66%)”. In data set [2], this compound yielded an IC50 below 100 nM.
Regarding `CCN(C(=O)c1cc(F)ccc1Oc1cncnc1N1CC2(CCN(C[C@@H]3CC[C@@H](NS(=O)(=O)c4ccccc4)CO3)CC2)C1)C(C)C` [Example 45, N-Ethyl-5-fluoro-N-isopropyl-2-((4-(7-(((2S,5R)-5-(phenylsulfonamido)tetrahydro-2H-pyran-2-yl)methyl)-2,7-diazaspiro[3.5]nonan-2-yl)pyrimidin-5-yl)oxy)benzamide], the “hERG % Remaining” value on hERG (10 μM compound) is “++ (233% and ≤66%)”; at hERG (30 μM compound), “+ (<33%)”. For the same compound, the IC50 in data set [2] is below 100 nM.
For the compound `CC(C)N(CC(F)F)C(=O)c1cc(F)ccc1Oc1cncnc1N1CC2(CCN(C[C@@H]3CC[C@@H](NS(=O)(=O)C4CC4)CO3)CC2)C1` [Example 47, 2-((4-(7-(((2S,5R)-5-(Cyclopropanesulfonamido)tetrahydro-2H-pyran-2-yl)methyl)-2,7-diazaspiro[3.5]nonan-2-yl)pyrimidin-5-yl)oxy)-N-(2,2-difluoroethyl)-5-fluoro-N-isopropylbenzamide], the “hERG % Remaining” value at hERG (10 μM compound) is “+++ (≥66%)”; on hERG (30 μM compound), “++ (233% and ≤66%)”. The compound further yielded an IC50 in data set [2] below 100 nM.
Turning to `CCN(C(=O)c1cc(F)ccc1Oc1cncnc1N1CC2(CCN(C[C@@H]3CC[C@@H](NS(=O)(=O)N(C)C)CO3)CC2)C1)C(C)C` [Example 49, 2-((4-(7-(((2S,5R)-5-((N,N-Dimethylsulfamoyl)amino)tetrahydro-2H-pyran-2-yl)methyl)-2,7-diazaspiro[3.5]nonan-2-yl)pyrimidin-5-yl)oxy)-N-ethyl-5-fluoro-N-isopropylbenzamide], the “hERG % Remaining” value on hERG (10 μM compound) and on hERG (30 μM compound) was “+++ (≥66%)” throughout. Moreover, the IC50 in data set [2] is below 100 nM.
As for `CCS(=O)(=O)N[C@@H]1CC[C@@H](CN2CCC3(CC2)CN(c2ncncc2Oc2ccc(F)cc2C(=O)N(C(C)C)[C@H]2C[C@@H](O)C2)C3)OC1` [Example 50, 2-((4-(7-(((2S,5R)-5-(Ethylsulfonamido)tetrahydro-2H-pyran-2-yl)methyl)-2,7-diazaspiro[3.5]nonan-2-yl)pyrimidin-5-yl)oxy)-5-fluoro-N-((1s,3s)-3-hydroxycyclobutyl)-N-isopropylbenzamide], the IC50 in data set [1] and in data set [2] was below 100 nM in each case.
As usually defined, the EC50 is the concentration giving half of the maximal effect. Low readings indicate higher potency in that assay, high ones lower potency in that assay. At Menin-MLL, `CCN(C(=O)c1cc(F)ccc1Oc1cncnc1N1CC2(CCN(C[C@H]3CC[C@H](NS(=O)(=O)CC)CO3)CC2)C1)C(C)C` [Example 52, N-Ethyl-2-((4-(7-(((2R,5S)-5-(ethylsulfonamido)tetrahydro-2H-pyran-2-yl)methyl)-2,7-diazaspiro[3.5]nonan-2-yl)pyrimidin-5-yl)oxy)-5-fluoro-N-isopropylbenzamide] displayed an EC50 of at most 50 nM.
At Menin-MLL, `CC(C)N(C(=O)c1cc(F)ccc1Oc1cncnc1N1CC2(CCN(C[C@@H]3CC[C@@H](NS(=O)(=O)C(C)C)CO3)CC2)C1)[C@@H]1CCOC1` [Example 132, 5-Fluoro-N-isopropyl-2-((4-(7-(((2S,5R)-5-((1-methylethyl)sulfonamido)tetrahydro-2H-pyran-2-yl)methyl)-2,7-diazaspiro[3.5]nonan-2-yl)pyrimidin-5-yl)oxy)-N-((R)-tetrahydrofuran-3-yl)benzamide] returned an EC50 of 111 nM.
Consider `CCN(C(=O)c1cc(F)ccc1Oc1cncnc1N1CC2(CCN(C[C@@H]3CC[C@@H](NC(=O)Nc4ccccc4)CO3)CC2)C1)C(C)C` [Example 215, N-Ethyl-5-fluoro-N-isopropyl-2-((4-(7-(((2S,5R)-5-(3-phenylureido)tetrahydro-2H-pyran-2-yl)methyl)-2,7-diazaspiro[3.5]nonan-2-yl)pyrimidin-5-yl)oxy)benzamide], for which the “Menin-MLL Ki HTRF Assay: EC50 (nM)” value on Menin-MLL was “++ (250 nM and <100 nM)”.
`CCS(=O)(=O)N[C@@H]1CC[C@@H](CN2CCC3(CC2)CN(c2ncncc2Oc2ccc(F)cc2C(=O)N(C(C)C)[C@H]2C[C@H](F)C2)C3)OC1` [Example 243, 2-((4-(7-(((2S,5R)-5-(Ethylsulfonamido)tetrahydro-2H-pyran-2-yl)methyl)-2,7-diazaspiro[3.5]nonan-2-yl)pyrimidin-5-yl)oxy)-5-fluoro-N-((1r,3r)-3-fluorocyclobutyl)-N-isopropylbenzamide]: the IC50 in data set [1] was below 100 nM. On Menin-MLL, the Ki is below 1 nM.
On the same counts, the results for `CCS(=O)(=O)N[C@@H]1CC[C@@H](CN2CCC3(CC2)CN(c2ncncc2Oc2ccc(F)cc2C(=O)N(C(C)C)[C@H]2C[C@@H](C(F)F)C2)C3)OC1` [Example 245, N-((1s,3s)-3-(difluoromethyl)cyclobutyl)-2-((4-(7-(((2S,5R)-5-(ethylsulfonamido)tetrahydro-2H-pyran-2-yl)methyl)-2,7-diazaspiro[3.5]nonan-2-yl)pyrimidin-5-yl)oxy)-5-fluoro-N-isopropylbenzamide] are below 100 nM and below 1 nM.

The values above are taken from patent US20240400564A1 (Syndax Pharmaceuticals, Inc, priority 2021, published 2024).
